# According to US20090093460A1, “Compositions” (AstraZeneca AB, priority 2003, published 2009):
# Read-outs that look alike come from different tables or passages of the source.
# Assays:
# Adrenergic α1D = biological target: T1, Adrenergic α1D (Homo sapiens, UniProt P25100); experiment: Radioligand binding 203400 Adrenergic α1D
# T1 construct: host or cells: HEK-293 cells
# T1 sequence (P25100 1-572): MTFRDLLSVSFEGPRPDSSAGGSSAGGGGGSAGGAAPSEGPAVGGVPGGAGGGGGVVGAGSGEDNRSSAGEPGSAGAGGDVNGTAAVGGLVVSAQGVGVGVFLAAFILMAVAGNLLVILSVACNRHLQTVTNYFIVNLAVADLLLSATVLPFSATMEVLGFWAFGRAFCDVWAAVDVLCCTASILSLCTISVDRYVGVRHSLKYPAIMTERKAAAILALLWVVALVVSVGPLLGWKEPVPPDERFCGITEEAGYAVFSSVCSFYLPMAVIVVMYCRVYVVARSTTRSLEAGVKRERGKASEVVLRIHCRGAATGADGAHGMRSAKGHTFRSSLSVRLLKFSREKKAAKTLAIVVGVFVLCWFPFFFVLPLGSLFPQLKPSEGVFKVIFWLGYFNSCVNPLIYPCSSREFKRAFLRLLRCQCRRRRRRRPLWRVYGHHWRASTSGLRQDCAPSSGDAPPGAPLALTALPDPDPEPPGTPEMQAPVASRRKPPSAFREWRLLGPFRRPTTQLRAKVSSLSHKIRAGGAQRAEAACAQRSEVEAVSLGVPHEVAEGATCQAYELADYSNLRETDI
# Description: (§1) Receptor binding methods, (α-adrenergic subtype specific, are provided below.
# rats = experiment: D-amphetamine locomotor activity test; type: in vivo, rat; conditions: freebase, s.c.
# Description: (§2) The methods and procedures used can be found in Warawa et al., J. Med. Chem., 2001, 44 (3), 372-389, and are incorporated herein by reference.
# Adrenergic α2B = biological target: T2, Adrenergic α2B (Homo sapiens, UniProt P18089); experiment: Radioligand binding Adrenergic α2B
# T2 sequence (P18089 1-450): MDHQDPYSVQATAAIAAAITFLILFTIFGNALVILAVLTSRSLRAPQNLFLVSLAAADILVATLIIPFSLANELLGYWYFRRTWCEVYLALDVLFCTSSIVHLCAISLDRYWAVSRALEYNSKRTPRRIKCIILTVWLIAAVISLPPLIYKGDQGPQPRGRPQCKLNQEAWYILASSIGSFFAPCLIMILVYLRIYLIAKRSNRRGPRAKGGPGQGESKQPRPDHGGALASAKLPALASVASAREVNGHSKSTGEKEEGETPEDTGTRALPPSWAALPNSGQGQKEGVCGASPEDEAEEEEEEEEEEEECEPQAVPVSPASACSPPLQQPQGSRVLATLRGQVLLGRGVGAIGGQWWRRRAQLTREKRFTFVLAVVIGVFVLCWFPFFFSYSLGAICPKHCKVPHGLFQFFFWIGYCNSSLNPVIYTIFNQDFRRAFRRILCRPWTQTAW
# [1] = biological target: Adrenergic α2* Non-Selective; experiment: Radioligand binding 203900 Adrenergic α2* Non-Selective; design: species or system rat
# Description: Receptor binding methods, α-adrenergic nonselective, are provided below.
# Adrenergic α1A = biological target: T3, Adrenergic α1A (Rattus norvegicus, UniProt P43140); experiment: Radioligand binding 203100 Adrenergic α1A
# T3 construct: 203100
# T3 sequence (P43140 1-466): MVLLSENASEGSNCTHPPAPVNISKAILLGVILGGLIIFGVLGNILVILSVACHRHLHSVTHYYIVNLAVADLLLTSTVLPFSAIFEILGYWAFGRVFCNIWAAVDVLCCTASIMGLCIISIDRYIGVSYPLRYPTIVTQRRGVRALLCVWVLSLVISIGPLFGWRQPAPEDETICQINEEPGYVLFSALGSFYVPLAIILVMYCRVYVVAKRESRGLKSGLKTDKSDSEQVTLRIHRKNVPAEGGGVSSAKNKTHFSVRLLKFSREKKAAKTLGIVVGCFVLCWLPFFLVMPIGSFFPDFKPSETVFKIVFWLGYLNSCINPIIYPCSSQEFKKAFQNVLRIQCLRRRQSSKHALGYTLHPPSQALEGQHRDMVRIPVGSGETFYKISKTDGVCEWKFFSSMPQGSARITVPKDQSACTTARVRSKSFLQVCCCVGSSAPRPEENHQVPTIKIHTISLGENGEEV
# Description: as §1
# Adrenergic α2A = biological target: T4, Adrenergic α2A (Homo sapiens, UniProt P08913); experiment: Radioligand binding Adrenergic α2A
# T4 sequence (P08913 1-465): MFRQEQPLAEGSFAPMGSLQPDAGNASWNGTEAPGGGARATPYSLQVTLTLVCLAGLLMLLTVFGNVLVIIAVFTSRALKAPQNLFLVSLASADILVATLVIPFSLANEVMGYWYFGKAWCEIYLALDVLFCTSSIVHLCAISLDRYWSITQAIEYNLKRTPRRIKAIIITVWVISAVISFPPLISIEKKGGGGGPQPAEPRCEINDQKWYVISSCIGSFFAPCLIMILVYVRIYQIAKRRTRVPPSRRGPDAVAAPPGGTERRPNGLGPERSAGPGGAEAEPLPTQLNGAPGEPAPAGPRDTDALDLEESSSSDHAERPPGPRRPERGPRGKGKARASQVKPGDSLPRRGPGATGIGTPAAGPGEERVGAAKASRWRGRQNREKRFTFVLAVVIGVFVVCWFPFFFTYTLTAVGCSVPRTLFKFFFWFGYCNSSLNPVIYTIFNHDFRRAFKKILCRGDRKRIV
# [2] = PET scans of primate subjects, brain entry; type: in vivo; conditions: preliminary PET scans
# Description: The compound of Formula I is a dibenzothiazepine that has shown antidopaminergic activity.
# [3] = Oral bioavailability in Sprague-Dawley rats; type: in vivo; conditions: rat, plasma, 30 μmol/kg
# Protocol: 11-piperazin-1-yldibenzo[b,f][1,4]thiazepine was administered to 3 Sprague-Dawley rats each either intravenously or orally at doses of 10 μmol/kg or 30 μmol/kg, respectively, in a sodium citrate (pH 3) formulation. Blood samples were removed from each animal at several time points after dosing. The blood samples were centrifuged to produce plasma. Aliquots of each plasma sample were analyzed by an HPLC method with mass spectrometric detection to measure 11-piperazin-1-yldibenzo[b,f][1,4]thiazepine. The area under the plasma concentration curves (AUC) constructed from the sample measurements following iv or po administration were used to calculate oral biovailability.
# mice = experiment: Standard apomorphine climbing mouse assay; type: in vivo; conditions: p.o.
# Description: as §2
smiles,measurement,setting,value
"c1ccc2c(c1)N=C(N1CCNCC1)c1ccccc1S2 [11-piperazin-1-yldibenzo[b,f][1,4]thiazepine]",IC50,Adrenergic α1D,377 ± 49 nM
same,n,Adrenergic α1D,0.984 ± 0.111
same,inhibition at 0.3 µM,Adrenergic α1D; 0.3 μM,53%
same,Ki,Adrenergic α1D; read-out: ki,185 ± 24 nM
same,Ki,"Adrenergic α1D; α1D, read-out: Affinity",185 nM
same,in vivo antipsychotic activity,rats,not found to be efficacious
same,in vivo antipsychotic activity,rats; listed as compound of Formula I,not shown to be efficacious
same,IC50,Adrenergic α2B,451 ± 97 nM
same,Ki,Adrenergic α2B,206 ± 44.5 nM
same,n,Adrenergic α2B,0.902 ± 0.055
same,inhibition at 1 µM,Adrenergic α2B; 1 μM,62%
same,IC50,[1],1410 nM
same,Ki,[1],1290 nM
same,% INH.,[1]; 10 μM,73%
same,IC50,Adrenergic α1A,268 ± 12 nM
same,n,Adrenergic α1A,1.03 ± 0.089
same,inhibition at 0.3 µM,Adrenergic α1A; 0.3 μM,51%
same,Ki,Adrenergic α1A; read-out: ki,108 ± 5 nM
same,Ki,"Adrenergic α1A; α1A, read-out: Affinity",108 nM
same,IC50,Adrenergic α2A,2820 ± 275 nM
same,Ki,Adrenergic α2A,1060 ± 103 nM
same,n,Adrenergic α2A,0.969 ± 0.012
same,inhibition at 3 µM,Adrenergic α2A; 3 μM,51%
same,brain entry by PET,[2],reaches the brain
same,bioavailability,[3],11%
same,in vivo antipsychotic activity,mice,not shown to be efficacious
